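These data come from cells grown in 96-well plates and exposed to compound for 48 hours at five concentrations. GI50: concentration for 50% inhibition of growth.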 The source made the active and inactive calls. Cut-off read from the data, not from the text of the source: active = GI50 up to about 1.1 µM and inactive = higher.
Legend:
Experiment in all cases: growth of human tumour cells (NCI), 48 h
[1] = system: RPMI-8226
[2] = system: SN12C
[3] = system: CCRF-CEM
[4] = system: 786-0
[5] = system: SNB-75
[6] = system: UACC-257
[7] = system: KM12
[8] = system: HCC 2998
[9] = system: MCF7
[10] = system: SK-MEL-5
[11] = system: T47D
[12] = system: HL-60
[13] = system: IGROV-1
[14] = system: COLO 205
[15] = system: DU-145
[16] = system: EKVX
[17] = system: TK-10
[18] = system: SR
[19] = system: A549
[20] = system: SF-295
[21] = system: HCT-15
[22] = system: CAKI-1
[23] = system: SF-268
[24] = system: MOLT-4
[25] = system: PC-3
[26] = system: NCI-H23
[27] = system: K562
[28] = system: M14
[29] = system: HOP-62
[30] = system: HT-29
[31] = system: SW-620
[32] = system: LOX IMVI
[33] = system: MDA-N
[34] = system: SK-MEL-28
[35] = system: RXF 393
[36] = system: SK-OV-3
[37] = system: UACC-62
[38] = system: Malme-3M
[39] = system: MDA-MB-231
[40] = system: OVCAR-8
[41] = system: SF-539
[42] = system: HCT-116
[43] = system: UO-31
[44] = system: OVCAR-4
[45] = system: NCI/ADR-RES
[46] = system: HOP-92
[47] = system: Hs-578T
[48] = system: OVCAR-5
[49] = system: ACHN
[50] = system: SK-MEL-2
[51] = system: A498
[52] = system: MDA-MB-435
[53] = system: OVCAR-3

C/C(=C\CCC1=CC(=O)OC1)CC[C@@H]1[C@H]2C(=O)CC(C)[C@@]3(C)CC[C@]1(C)[C@@]23C (stereo partly drawn)
GI50 [1]: > 10 µM (inactive) | GI50 [2]: > 10 µM (inactive) | GI50 [3]: > 10 µM (inactive) | GI50 [4]: > 10 µM (inactive) | GI50 [5]: > 10 µM (inactive) | GI50 [6]: > 10 µM (inactive) | GI50 [7]: > 10 µM (inactive) | GI50 [8]: > 10 µM (inactive) | GI50 [9]: > 10 µM (inactive) | GI50 [10]: > 10 µM (inactive) | GI50 [11]: > 10 µM (inactive) | GI50 [12]: > 10 µM (inactive) | GI50 [13]: > 10 µM (inactive) | GI50 [14]: > 10 µM (inactive) | GI50 [15]: > 10 µM (inactive) | GI50 [16]: > 10 µM (inactive) | GI50 [17]: > 10 µM (inactive) | GI50 [18]: > 10 µM (inactive) | GI50 [19]: > 10 µM (inactive) | GI50 [20]: > 10 µM (inactive) | GI50 [21]: > 10 µM | GI50 [22]: > 10 µM (inactive) | GI50 [23]: > 10 µM (inactive) | GI50 [24]: > 10 µM (inactive) | GI50 [25]: > 10 µM (inactive) | GI50 [26]: > 10 µM (inactive) | GI50 [27]: > 10 µM (inactive) | GI50 [28]: > 10 µM (inactive) | GI50 [29]: > 10 µM (inactive) | GI50 [30]: > 10 µM (inactive) | GI50 [31]: > 10 µM (inactive) | GI50 [32]: > 10 µM (inactive) | GI50 [33]: > 10 µM (inactive) | GI50 [34]: > 10 µM (inactive) | GI50 [35]: > 10 µM (inactive) | GI50 [36]: > 10 µM (inactive) | GI50 [37]: > 10 µM (inactive) | GI50 [38]: > 10 µM (inactive) | GI50 [39]: > 10 µM (inactive) | GI50 [40]: > 10 µM (inactive)

O=C(CCc1ccc(O)cc1)c1c(O)cc(O)cc1OC1OC(CO)C(O)C(O)C1O (stereo not drawn)
GI50 [41]: > 100 µM (inactive) | GI50 [42]: > 100 µM (inactive) | GI50 [4]: > 100 µM (inactive) | GI50 [43]: > 100 µM (inactive) | GI50 [5]: > 100 µM (inactive) | GI50 [6]: > 100 µM (inactive) | GI50 [44]: > 100 µM (inactive) | GI50 [7]: > 100 µM (inactive) | GI50 [8]: > 100 µM (inactive) | GI50 [10]: > 100 µM (inactive) | GI50 [11]: > 100 µM (inactive) | GI50 [13]: > 100 µM (inactive) | GI50 [45]: > 100 µM (inactive) | GI50 [46]: > 100 µM (inactive) | GI50 [47]: > 100 µM (inactive) | GI50 [14]: > 100 µM (inactive) | GI50 [48]: > 100 µM (inactive) | GI50 [15]: > 100 µM (inactive) | GI50 [16]: > 100 µM (inactive) | GI50 [49]: > 100 µM (inactive) | GI50 [17]: > 100 µM (inactive) | GI50 [19]: > 100 µM (inactive) | GI50 [20]: > 100 µM (inactive) | GI50 [21]: > 100 µM | GI50 [50]: > 100 µM (inactive) | GI50 [22]: > 100 µM (inactive) | GI50 [23]: > 100 µM (inactive) | GI50 [51]: > 100 µM (inactive) | GI50 [25]: > 100 µM (inactive) | GI50 [26]: > 100 µM (inactive) | GI50 [27]: > 100 µM (inactive) | GI50 [28]: > 100 µM (inactive) | GI50 [52]: > 100 µM (inactive) | GI50 [29]: > 100 µM (inactive) | GI50 [30]: > 100 µM (inactive) | GI50 [31]: > 100 µM (inactive) | GI50 [32]: > 100 µM (inactive) | GI50 [33]: > 100 µM (inactive) | GI50 [34]: > 100 µM (inactive) | GI50 [53]: > 100 µM (inactive) | GI50 [36]: > 100 µM (inactive) | GI50 [37]: > 100 µM (inactive) | GI50 [38]: > 100 µM (inactive)

Source: ChEMBL document CHEMBL1201862, “PubChem BioAssay data set” (2004)
